Data: patent US20220386606A1, “SPECIFICALLY SUBSTITUTED 3-PHENYL-5-SPIROCYCLOPENTYL-3-PYRROLIN-2-ONES AND THEIR USE AS HERBICIDES” (Bayer Aktiengesellschaft, priority 2019, published 2022)

Columns and labels:
MATIN = assay: Pre-emergence herbicidal action against MATIN; assay type: in vivo; conditions: 320 g/ha
How it was run: (§1)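 Weed and crop seeds sown in sandy loam, then WP or EC formulations sprayed onto covering soil pre-emergence as aqueous suspension or emulsion at 600 to 800 L/ha water with 0.2% wetting agent. Greenhouse-grown; visual damage scored after 3 weeks versus untreated controls, 0–100%.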

AVEFA [1] = assay: Post-emergence herbicidal action against AVEFA; assay type: in vivo, Avena fatua; conditions: 80 g/ha, visual assessment after about 3 weeks
How it was run: (§2)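 Greenhouse post-emergence test; one-leaf stage (2–3 wk post-sowing), sandy loam. Spray: WP/EC in water, 600–800 l/ha, 0.2% wetting agent, onto green parts. Visual rating ~3 wk later, % vs untreated (100% = dead, 0% = like control).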

DIGSA [2] = assay: Pre-emergence herbicidal action against DIGSA; assay type: in vivo, Digitaria sanguinalis; conditions: 320 g/ha, scored visually after 3 weeks vs untreated controls
How it was run: as §1

POLCO = assay: Pre-emergence herbicidal action against POLCO; assay type: in vivo, Polygonum convolvulus; conditions: 320 g/ha
How it was run: as §1

SETVI [3] = assay: Pre-emergence herbicidal action against SETVI; assay type: in vivo, Setaria viridis; conditions: 320 g/ha, scored visually after 3 weeks vs untreated controls
How it was run: as §1

ECHCG [4] = assay: Post-emergence herbicidal action against ECHCG; assay type: in vivo, Echinochloa crus-galli; conditions: 80 g/ha, visual assessment about 3 weeks after treatment vs untreated controls
How it was run: as §2

ABUTH [5] = assay: Post-emergence herbicidal action against ABUTH; assay type: in vivo, Abutylon threophrasti; conditions: 80 g/ha, visual assessment about 3 weeks after treatment vs untreated controls
How it was run: as §2

ALOMY [6] = assay: Post-emergence herbicidal action against ALOMY; assay type: in vivo, Alopecurus myosuroides; conditions: 80 g/ha, visual assessment after about 3 weeks
How it was run: as §2

VIOTR [7] = assay: Post-emergence herbicidal action against VIOTR; assay type: in vivo, Viola tricolor; conditions: 80 g/ha, visual assessment about 3 weeks after treatment vs untreated controls
Method: (§3) Seeds of monocotyledonous and dicotyledonous weed and crop plants are laid out in sandy loam soil in wood-fiber pots, covered with soil and cultivated in a greenhouse under good growth conditions. 2 to 3 weeks after sowing, the test plants are treated at the one-leaf stage. The compounds of the invention, formulated in the form of wettable powders (WP) or as emulsion concentrates (EC), are then sprayed onto the green parts of the plants as aqueous suspension or emulsion at a water application rate equating to 600 to 800 l/ha with addition of 0.2% wetting agent. After the test plants have been left to stand in the greenhouse under optimal growth conditions for about 3 weeks, the action of the preparations is assessed visually in comparison to untreated controls (herbicidal action in percent (%): 100% activity=the plants have died, 0% activity=like control plants).

ECHCG [8] = assay: Pre-emergence herbicidal action against ECHCG; assay type: in vivo, Echinochloa crus-galli; conditions: 320 g/ha, scored visually after 3 weeks vs untreated controls
How it was run: as §1

VIOTR [9] = assay: Pre-emergence herbicidal action against VIOTR; assay type: in vivo, Viola tricolor; conditions: 320 g/ha
How it was run: as §1

DIGSA [10] = assay: Post-emergence herbicidal action against DIGSA; assay type: in vivo, Digitaria sanguinalis; conditions: 80 g/ha, visual assessment about 3 weeks after treatment vs untreated controls
How it was run: as §2

ALOMY [11] = assay: Pre-emergence herbicidal action against ALOMY; assay type: in vivo, Alopecurus myosuroides; conditions: 320 g/ha, scored visually after 3 weeks vs untreated controls
How it was run: as §1

AMARE [12] = assay: Pre-emergence herbicidal action against AMARE; assay type: in vivo, Amaranthus retroflexus; conditions: 320 g/ha
How it was run: as §1

SETVI [13] = assay: Post-emergence herbicidal action against SETVI; assay type: in vivo, Setaria viridis; conditions: 80 g/ha, visual assessment about 3 weeks after treatment vs untreated controls
How it was run: as §2

LOLRI [14] = assay: Post-emergence herbicidal action against LOLRI; assay type: in vivo, Lolium rigidum; conditions: 80 g/ha, visual assessment about 3 weeks after treatment vs untreated controls
How it was run: as §2

AVEFA [15] = assay: Pre-emergence herbicidal action against AVEFA; assay type: in vivo, Avena fatua; conditions: 320 g/ha, scored visually after 3 weeks vs untreated controls
How it was run: as §1

LOLRI [16] = assay: Pre-emergence herbicidal action against LOLRI (Table 8, titled post-emergence at 320 g/ha); assay type: in vivo, Lolium rigidum; conditions: table stands in the pre-emergence section
How it was run: as §1

AMARE [17] = assay: Post-emergence herbicidal action against AMARE; assay type: in vivo, Amaranthus retroflexus; conditions: 80 g/ha, visual assessment about 3 weeks after treatment vs untreated controls
Method: as §3

HORMU = assay: Post-emergence herbicidal action against HORMU; assay type: in vivo, Hordeum murinum; conditions: 80 g/ha, visual assessment about 3 weeks after treatment vs untreated controls
How it was run: as §2

VERPE = assay: Pre-emergence herbicidal action against VERPE; assay type: in vivo, Veronica persica; conditions: 320 g/ha
How it was run: as §1

ABUTH [18] = assay: Pre-emergence herbicidal action against ABUTH; assay type: in vivo, Abutylon threophrasti; conditions: 320 g/ha
Source text: Seeds of monocotyledonous and dicotyledonous weed plants and crop plants are laid out in sandy loam soil in wood-fiber pots and covered with soil. The compounds of the invention, formulated in the form of wettable powders (WP) or as emulsion concentrates (EC), are then applied to the surface of the covering soil as aqueous suspension or emulsion at a water application rate equating to 600 to 800 L/ha with addition of 0.2% wetting agent.
After the treatment, the pots are placed in a greenhouse and kept under good growth conditions for the trial plants. The damage to the test plants is scored visually after a test period of 3 weeks by comparison with untreated controls (herbicidal activity in percent (%): 100% activity=the plants have died, 0% activity=like control plants).

Row | SMILES | Post-emergence action against AVEFA in % (AVEFA [1]) | Pre-emergence action against DIGSA in % (DIGSA [2]) | Pre-emergence action against POLCO in % (POLCO) | Pre-emergence action against SETVI in % (SETVI [3]) | Post-emergence action against ECHCG in % (ECHCG [4]) | Post-emergence action against ABUTH in % (ABUTH [5]) | Post-emergence action against ALOMY in % (ALOMY [6]) | Post-emergence action against VIOTR in % (VIOTR [7]) | Pre-emergence action against ECHCG in % (ECHCG [8]) | Pre-emergence action against VIOTR in % (VIOTR [9]) | Post-emergence action against DIGSA in % (DIGSA [10]) | Pre-emergence action against ALOMY in % (ALOMY [11]) | Post-emergence action against SETVI in % (SETVI [13]) | Post-emergence action against LOLRI in % (LOLRI [14]) | Pre-emergence action against AVEFA in % (AVEFA [15]) | Pre-emergence herbicidal action against LOLRI in % (LOLRI [16]) | Post-emergence action against AMARE in % (AMARE [17]) | Pre-emergence action against VERPE in % (VERPE) | other results
1 | CC#Cc1cc(C)c(C2=C(O)C3(CCC(COC)C3)NC2=O)c(Br)c1 (stereo not shown) [Example I-19] | 90% | 100% | 100% | 100% | 100% | 90% | 100% | 80% | 100% | 100% | 100% | 100% | 100% | 100% | 100% | 100% | – | – | Pre-emergence action against MATIN in % (MATIN): 80%; Pre-emergence action against AMARE in % (AMARE [12]): 100%
2 | CC#Cc1cc(C)c(C2=C(O)C3(CCC(COC)C3)NC2=O)c(OC)c1 (stereo not shown) [Example I-31] | 100% | 100% | – | 100% | 100% | 80% | 100% | – | 100% | 80% | 100% | 100% | 100% | 100% | 80% | 100% | 80% | – | –
3 | CC#Cc1cc(C)c(C2=C(O)C3(CCC(COC)C3)NC2=O)c(F)c1 (stereo not shown) [Example I-36] | 100% | 100% | – | 100% | 100% | 80% | 100% | – | 100% | 80% | 100% | 100% | – | 100% | 80% | 100% | 80% | – | Pre-emergence action against AMARE in % (AMARE [12]): 90%
4 | CC#Cc1cc(F)c(C2=C(O)C3(CCC(COC)C3)NC2=O)c(OC)c1 (stereo not shown) [Example I-40] | 90% | 100% | – | 100% | 100% | – | 100% | – | 100% | – | 100% | 100% | 100% | 90% | 100% | 90% | 80% | – | –
5 | CC#Cc1cc(C)c(C2=C(OC(=O)C(C)C)C3(CCC(COCC)C3)NC2=O)c(Cl)c1 (stereo not shown) [Example P-17] | 100% | – | – | – | 100% | 90% | 100% | 80% | – | – | 100% | – | 100% | 100% | – | – | – | – | Post-emergence action against HORMU in % (HORMU): 100%
6 | CC#Cc1cc(C)c(C2=C(OC(=O)OCC)C3(CCC(COC)C3)NC2=O)c(Cl)c1 (stereo not shown) [Example P-18] | 100% | – | – | – | 100% | 80% | 100% | – | – | – | 100% | – | 100% | 100% | – | – | 80% | – | Post-emergence action against HORMU in % (HORMU): 100%
7 | CC#Cc1cc(C)c(C2=C(OC(=O)OCC)C3(CCC(COCC)C3)NC2=O)c(Br)c1 (stereo not shown) [Example P-34] | 90% | 100% | – | 100% | 100% | – | 100% | 80% | 100% | 100% | 100% | 100% | 100% | 90% | 100% | 100% | – | 80% | Pre-emergence action against ABUTH in % (ABUTH [18]): 90%
8 | CC#Cc1cc(F)c(C2=C(OC(=O)OCC)C3(CCC(COC)C3)NC2=O)c(OC)c1 (stereo not shown) [Example P-62] | 90% | 100% | – | 100% | 100% | 80% | 90% | – | 100% | – | 100% | 100% | 100% | 90% | 90% | 100% | 80% | – | –
9 | C=CCOCC1CCC2(C1)NC(=O)C(c1c(C)cc(C#CC)cc1Cl)=C2OC(=O)OCC (stereo not shown) [Example P-71] | 80% | 100% | 90% | 100% | 100% | – | 80% | 100% | 100% | 100% | 90% | 100% | 100% | 80% | 90% | 100% | – | 90% | –
10 | C=CCOCC1CCC2(C1)NC(=O)C(c1c(C)cc(C#CC)cc1Cl)=C2OC(=O)OCC (stereo not shown) [Example P-72] | – | 100% | 100% | 100% | 100% | – | 80% | 90% | 100% | 100% | 90% | 90% | 100% | 80% | – | 100% | – | 80% | –
